In general, ΔTm refers to the shift of the melting midpoint relative to a reference.

The target of test [1] is Calcium/calmodulin-dependent protein kinase type 1D (Homo sapiens) (UniProt Q8IU85).
Test [2] addresses Calcium/calmodulin-dependent protein kinase type II subunit gamma (Homo sapiens) (UniProt Q13555).
Test [3] addresses T1, Calcium/calmodulin-dependent protein kinase type IV (Homo sapiens) (UniProt Q16566).
T1 sequence (whole entry): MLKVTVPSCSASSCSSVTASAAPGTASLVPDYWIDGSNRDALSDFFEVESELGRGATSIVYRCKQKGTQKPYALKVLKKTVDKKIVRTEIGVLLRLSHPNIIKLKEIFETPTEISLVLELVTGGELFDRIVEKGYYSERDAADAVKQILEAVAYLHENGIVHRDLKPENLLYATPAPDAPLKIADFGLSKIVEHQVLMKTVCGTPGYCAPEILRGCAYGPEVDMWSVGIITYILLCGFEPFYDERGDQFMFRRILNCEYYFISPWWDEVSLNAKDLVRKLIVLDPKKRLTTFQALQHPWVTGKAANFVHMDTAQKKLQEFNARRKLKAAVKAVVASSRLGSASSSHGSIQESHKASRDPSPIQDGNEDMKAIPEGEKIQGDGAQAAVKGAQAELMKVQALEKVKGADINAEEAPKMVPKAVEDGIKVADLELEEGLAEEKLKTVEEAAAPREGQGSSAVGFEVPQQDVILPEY

Test [4] addresses Serine/threonine-protein kinase Chk2 (Homo sapiens, UniProt O96017).
Test [5] concerns the target Dual specificity mitogen-activated protein kinase kinase 2 (Homo sapiens, UniProt P36507).
Test [6] addresses Mitogen-activated protein kinase 11 (Homo sapiens, UniProt Q15759).
Test [7] has as its target Mitogen-activated protein kinase 3 (Homo sapiens, UniProt P27361).
In test [8] the target is T2, Serine/threonine-protein kinase Nek2 (Homo sapiens) (UniProt P51955).
T2 sequence (whole entry): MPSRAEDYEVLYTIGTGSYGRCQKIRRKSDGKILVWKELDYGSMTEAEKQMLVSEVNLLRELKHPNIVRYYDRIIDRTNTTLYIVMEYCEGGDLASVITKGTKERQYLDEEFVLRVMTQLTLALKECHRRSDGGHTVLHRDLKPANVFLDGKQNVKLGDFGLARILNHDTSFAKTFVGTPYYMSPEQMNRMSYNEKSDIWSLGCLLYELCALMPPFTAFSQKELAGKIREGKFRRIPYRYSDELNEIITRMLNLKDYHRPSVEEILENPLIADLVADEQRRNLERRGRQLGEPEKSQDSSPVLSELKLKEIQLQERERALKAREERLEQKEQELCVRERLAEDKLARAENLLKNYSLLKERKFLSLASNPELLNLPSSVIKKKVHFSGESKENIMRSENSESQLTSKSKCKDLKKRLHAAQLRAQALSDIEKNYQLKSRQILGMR

For test [9], the target named is Serine/threonine-protein kinase PAK 6 (Homo sapiens) (UniProt Q9NQU5).
The target in test [10] is Serine/threonine-protein kinase pim-1 (Homo sapiens) (UniProt P11309).
In test [11] the target is Serine/threonine-protein kinase pim-2 (Homo sapiens, UniProt Q9P1W9).
Test [12] addresses Serine/threonine-protein kinase RIO2 (Homo sapiens) (UniProt Q9BVS4).
The target in test [13] is STE20-like serine/threonine-protein kinase (Homo sapiens) (UniProt Q9H2G2).
Sequence of STE20-like serine/threonine-protein kinase (Homo sapiens) (Q9H2G2 whole entry, looked up): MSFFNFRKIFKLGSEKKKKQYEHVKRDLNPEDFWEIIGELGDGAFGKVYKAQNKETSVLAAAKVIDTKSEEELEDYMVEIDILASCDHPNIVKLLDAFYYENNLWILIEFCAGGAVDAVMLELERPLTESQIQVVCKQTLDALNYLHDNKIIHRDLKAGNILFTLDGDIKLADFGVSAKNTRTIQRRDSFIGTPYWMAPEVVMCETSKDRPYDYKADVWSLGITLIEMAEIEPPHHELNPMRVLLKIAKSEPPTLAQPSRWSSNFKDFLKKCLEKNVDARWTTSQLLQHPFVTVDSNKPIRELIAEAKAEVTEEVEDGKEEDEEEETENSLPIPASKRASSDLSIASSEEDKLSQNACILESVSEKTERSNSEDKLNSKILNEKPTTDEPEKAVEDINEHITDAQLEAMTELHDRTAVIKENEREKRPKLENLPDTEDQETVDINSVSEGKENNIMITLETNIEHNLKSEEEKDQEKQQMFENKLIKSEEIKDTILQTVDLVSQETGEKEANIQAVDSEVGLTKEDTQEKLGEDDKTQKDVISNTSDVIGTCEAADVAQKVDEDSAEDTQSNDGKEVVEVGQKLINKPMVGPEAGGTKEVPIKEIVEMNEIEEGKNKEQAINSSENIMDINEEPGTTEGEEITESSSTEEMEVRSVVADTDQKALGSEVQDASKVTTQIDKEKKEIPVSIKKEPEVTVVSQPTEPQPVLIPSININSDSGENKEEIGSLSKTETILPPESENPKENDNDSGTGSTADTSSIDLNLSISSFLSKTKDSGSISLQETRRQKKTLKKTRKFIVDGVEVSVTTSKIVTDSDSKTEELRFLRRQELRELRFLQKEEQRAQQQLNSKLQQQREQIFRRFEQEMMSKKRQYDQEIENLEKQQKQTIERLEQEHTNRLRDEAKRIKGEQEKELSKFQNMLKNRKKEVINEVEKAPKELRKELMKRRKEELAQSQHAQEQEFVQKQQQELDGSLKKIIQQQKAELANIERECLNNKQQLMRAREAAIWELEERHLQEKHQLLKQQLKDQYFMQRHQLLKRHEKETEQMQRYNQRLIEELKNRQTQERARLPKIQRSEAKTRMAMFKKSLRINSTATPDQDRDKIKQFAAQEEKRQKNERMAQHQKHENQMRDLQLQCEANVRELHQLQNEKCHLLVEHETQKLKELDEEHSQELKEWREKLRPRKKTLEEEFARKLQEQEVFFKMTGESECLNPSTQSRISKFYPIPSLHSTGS
The target in test [14] is Serine/threonine-protein kinase 10 (Homo sapiens) (UniProt O94804).
Test [15] concerns the target Serine/threonine-protein kinase 38 (Homo sapiens) (UniProt Q15208).
For test [16], the target named is Serine/threonine-protein kinase 26 (Homo sapiens) (UniProt Q9P289).
In test [17] the target is T3, Serine/threonine-protein kinase 4 (Homo sapiens) (UniProt Q13043).
T3 sequence (whole entry): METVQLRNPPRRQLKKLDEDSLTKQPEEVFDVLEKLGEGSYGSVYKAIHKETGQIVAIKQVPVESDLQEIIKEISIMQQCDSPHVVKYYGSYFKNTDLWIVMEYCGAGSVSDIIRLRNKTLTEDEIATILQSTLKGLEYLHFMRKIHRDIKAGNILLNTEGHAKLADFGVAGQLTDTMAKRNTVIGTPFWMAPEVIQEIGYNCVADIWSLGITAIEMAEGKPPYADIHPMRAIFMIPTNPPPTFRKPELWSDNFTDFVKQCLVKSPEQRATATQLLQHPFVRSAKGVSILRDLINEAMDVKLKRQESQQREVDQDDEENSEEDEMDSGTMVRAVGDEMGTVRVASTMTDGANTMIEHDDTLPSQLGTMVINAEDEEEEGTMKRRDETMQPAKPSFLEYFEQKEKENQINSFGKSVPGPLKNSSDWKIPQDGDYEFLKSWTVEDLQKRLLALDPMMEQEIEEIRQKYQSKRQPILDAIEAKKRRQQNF

Test [18] concerns the target TRAF2 and NCK-interacting protein kinase (Homo sapiens) (UniProt Q9UKE5).
Test [19] addresses T4, Serine/threonine-protein kinase VRK3 (Homo sapiens) (UniProt Q8IV63).
T4 sequence (whole entry): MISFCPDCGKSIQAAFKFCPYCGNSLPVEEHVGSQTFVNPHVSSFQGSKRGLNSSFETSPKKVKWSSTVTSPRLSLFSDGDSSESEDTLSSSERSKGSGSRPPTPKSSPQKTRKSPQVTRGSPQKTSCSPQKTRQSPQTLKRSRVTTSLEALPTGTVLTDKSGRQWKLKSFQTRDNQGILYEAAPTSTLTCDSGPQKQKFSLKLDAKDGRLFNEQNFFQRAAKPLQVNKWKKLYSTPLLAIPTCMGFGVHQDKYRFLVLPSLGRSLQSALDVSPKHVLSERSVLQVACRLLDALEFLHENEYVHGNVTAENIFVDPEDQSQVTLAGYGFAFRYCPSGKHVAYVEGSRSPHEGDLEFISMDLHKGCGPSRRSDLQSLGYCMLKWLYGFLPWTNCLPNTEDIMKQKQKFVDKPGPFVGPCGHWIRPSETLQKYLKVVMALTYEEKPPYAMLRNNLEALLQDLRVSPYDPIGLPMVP

Test [20] deals with Cyclin-dependent kinase 2 (Homo sapiens, UniProt P24941).

Sequence of Mitogen-activated protein kinase 11 (Q15759 whole entry): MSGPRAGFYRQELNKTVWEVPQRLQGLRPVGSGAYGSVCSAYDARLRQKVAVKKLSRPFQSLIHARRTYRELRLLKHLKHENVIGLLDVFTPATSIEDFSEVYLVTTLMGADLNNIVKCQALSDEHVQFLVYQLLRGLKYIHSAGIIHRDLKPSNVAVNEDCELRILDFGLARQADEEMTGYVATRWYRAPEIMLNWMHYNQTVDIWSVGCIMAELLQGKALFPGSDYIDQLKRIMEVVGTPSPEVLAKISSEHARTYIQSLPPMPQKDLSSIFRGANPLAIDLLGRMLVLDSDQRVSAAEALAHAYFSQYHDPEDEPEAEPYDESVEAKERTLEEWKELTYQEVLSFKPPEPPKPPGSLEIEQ
Sequence of TRAF2 and NCK-interacting protein kinase (Homo sapiens) (Q9UKE5 whole entry, looked up): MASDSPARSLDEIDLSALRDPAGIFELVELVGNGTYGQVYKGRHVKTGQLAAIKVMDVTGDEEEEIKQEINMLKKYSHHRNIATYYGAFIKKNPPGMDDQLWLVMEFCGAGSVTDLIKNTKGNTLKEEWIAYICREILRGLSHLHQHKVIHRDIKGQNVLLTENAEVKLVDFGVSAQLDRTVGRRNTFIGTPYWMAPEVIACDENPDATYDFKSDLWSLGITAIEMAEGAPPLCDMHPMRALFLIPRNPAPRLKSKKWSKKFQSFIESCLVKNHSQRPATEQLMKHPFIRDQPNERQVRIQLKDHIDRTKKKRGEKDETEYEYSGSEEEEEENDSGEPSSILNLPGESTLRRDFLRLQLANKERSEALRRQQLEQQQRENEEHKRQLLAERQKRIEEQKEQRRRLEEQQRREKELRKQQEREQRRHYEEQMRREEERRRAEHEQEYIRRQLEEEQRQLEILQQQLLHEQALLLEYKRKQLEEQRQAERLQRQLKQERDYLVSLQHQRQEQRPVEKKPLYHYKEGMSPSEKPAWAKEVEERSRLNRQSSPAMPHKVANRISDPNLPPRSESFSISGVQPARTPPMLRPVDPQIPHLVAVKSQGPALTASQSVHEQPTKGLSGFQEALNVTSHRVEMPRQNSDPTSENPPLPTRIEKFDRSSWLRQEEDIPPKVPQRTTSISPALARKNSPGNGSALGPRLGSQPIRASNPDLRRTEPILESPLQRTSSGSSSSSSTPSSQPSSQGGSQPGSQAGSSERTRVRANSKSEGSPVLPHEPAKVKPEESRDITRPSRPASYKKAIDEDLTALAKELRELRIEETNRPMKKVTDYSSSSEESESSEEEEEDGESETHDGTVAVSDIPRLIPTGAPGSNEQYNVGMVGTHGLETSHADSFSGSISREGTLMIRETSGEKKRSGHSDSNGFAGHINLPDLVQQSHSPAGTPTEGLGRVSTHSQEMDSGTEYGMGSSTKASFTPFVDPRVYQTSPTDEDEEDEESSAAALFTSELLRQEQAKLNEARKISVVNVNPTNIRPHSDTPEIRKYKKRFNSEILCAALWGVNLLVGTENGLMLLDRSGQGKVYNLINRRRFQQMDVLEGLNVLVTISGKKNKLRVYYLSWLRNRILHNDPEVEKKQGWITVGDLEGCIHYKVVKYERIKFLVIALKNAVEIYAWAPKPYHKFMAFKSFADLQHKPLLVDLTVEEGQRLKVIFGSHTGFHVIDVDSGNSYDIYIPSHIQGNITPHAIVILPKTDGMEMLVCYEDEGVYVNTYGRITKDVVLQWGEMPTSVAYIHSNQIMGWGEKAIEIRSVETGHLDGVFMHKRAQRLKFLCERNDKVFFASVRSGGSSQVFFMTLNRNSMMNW
Sequence of Calcium/calmodulin-dependent protein kinase type II subunit gamma (Homo sapiens) (Q13555 whole entry): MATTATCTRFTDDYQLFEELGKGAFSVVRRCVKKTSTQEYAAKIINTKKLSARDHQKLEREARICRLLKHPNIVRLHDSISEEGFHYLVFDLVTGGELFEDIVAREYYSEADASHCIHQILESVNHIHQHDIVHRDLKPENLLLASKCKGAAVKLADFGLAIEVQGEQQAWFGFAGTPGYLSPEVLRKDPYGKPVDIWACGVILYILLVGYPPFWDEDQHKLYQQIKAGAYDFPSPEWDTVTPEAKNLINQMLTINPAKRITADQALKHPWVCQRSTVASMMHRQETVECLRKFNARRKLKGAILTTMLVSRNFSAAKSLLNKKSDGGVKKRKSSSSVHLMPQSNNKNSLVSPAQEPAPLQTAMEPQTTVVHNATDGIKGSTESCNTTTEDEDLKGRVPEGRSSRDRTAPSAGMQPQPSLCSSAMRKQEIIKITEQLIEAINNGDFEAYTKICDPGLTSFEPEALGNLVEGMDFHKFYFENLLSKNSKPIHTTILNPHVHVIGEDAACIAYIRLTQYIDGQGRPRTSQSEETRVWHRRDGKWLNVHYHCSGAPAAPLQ
Sequence of Mitogen-activated protein kinase 3 (P27361 whole entry): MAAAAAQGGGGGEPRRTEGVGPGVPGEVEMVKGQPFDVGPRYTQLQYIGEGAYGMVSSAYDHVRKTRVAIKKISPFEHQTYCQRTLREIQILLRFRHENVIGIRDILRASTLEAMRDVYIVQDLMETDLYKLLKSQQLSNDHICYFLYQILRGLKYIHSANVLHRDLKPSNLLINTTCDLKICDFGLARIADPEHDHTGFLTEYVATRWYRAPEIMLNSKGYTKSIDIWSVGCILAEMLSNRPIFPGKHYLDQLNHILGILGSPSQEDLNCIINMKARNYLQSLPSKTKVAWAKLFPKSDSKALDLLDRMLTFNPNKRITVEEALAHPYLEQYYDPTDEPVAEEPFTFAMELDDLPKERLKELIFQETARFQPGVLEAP
Sequence of Serine/threonine-protein kinase RIO2 (Homo sapiens) (Q9BVS4 whole entry, looked up): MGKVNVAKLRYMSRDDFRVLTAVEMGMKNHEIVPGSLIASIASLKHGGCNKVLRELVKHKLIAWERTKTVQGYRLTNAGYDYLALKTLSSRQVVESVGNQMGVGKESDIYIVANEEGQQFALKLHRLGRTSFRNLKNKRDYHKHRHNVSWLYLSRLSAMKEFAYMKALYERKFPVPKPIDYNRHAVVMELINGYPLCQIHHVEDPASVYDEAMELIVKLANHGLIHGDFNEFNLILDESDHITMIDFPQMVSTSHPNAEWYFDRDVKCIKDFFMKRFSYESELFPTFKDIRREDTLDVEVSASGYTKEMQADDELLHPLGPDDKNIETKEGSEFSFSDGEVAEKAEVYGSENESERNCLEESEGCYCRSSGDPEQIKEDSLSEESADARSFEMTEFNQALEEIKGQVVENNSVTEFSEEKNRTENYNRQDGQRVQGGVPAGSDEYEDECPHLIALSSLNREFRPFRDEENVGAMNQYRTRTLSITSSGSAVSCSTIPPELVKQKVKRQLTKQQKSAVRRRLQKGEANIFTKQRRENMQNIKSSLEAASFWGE
Sequence of Calcium/calmodulin-dependent protein kinase type 1D (Homo sapiens) (Q8IU85 whole entry, looked up): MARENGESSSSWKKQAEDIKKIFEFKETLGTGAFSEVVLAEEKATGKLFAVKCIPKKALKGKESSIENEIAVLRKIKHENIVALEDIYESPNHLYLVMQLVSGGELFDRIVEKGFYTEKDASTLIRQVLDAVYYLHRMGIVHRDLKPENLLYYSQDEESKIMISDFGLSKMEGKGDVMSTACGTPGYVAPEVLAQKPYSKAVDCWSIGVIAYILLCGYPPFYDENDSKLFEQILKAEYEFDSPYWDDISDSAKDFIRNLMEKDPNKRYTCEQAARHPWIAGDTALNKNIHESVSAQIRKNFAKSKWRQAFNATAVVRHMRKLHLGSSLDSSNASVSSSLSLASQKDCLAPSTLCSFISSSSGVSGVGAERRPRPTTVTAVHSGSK

Consider `Cn1cnc2c(NCc3ccccc3)nc(NCCO)nc21` [OLOMOUCINE], for which the ΔTm was -0.1 °C in [1]; 0.1 °C in test [2]; 0.1 °C in test [3]; -0.6 °C in test [4]; -0.4 °C in test [5]; -0.1 °C in test [6]. For the same molecule, the ΔTm was 0.2 °C in [7]; 1.1 °C in [8]; -0.5 °C in test [9]; -1 °C in test [10]; 0.1 °C in test [11]; 0.3 °C in [12]. The ΔTm in [13] was determined as 0 °C; in [14] it was 0.5 °C; in test [15] it was 0 °C; in [16], 0 °C; in test [17], 0.3 °C; in test [18] it was 0.3 °C. For the same molecule, the ΔTm in test [19] amounted to 0.1 °C.
Consider `Brc1c(Br)c(Br)c2[nH]nnc2c1Br` [TETRABROMOBENZOTRIAZOLE], for which the ΔTm in test [1] was -1.6 °C; in [2] it was 0.6 °C; in test [3], 0.4 °C; in test [4], 0.5 °C; in test [5], 1.6 °C; in test [6], 0.8 °C. For the same molecule, the ΔTm was 0 °C in test [7]; -0.1 °C in [8]; -0.1 °C in test [9]; 3.7 °C in test [10]; 4.2 °C in test [11]; 3.1 °C in test [12]. Besides, the ΔTm in test [13] is 1.2 °C; in test [14], 0 °C; in [15], 1.3 °C; in test [16], 1.3 °C; in test [17] it was 3.3 °C; in test [18], -0.8 °C. In test [19], the ΔTm was -1.2 °C.
In the case of `NS(=O)(=O)c1ccc(Nc2nc(OCC3CCCCC3)c3nc[nH]c3n2)cc1`, the ΔTm in [1] is 0.8 °C; in test [2], 0.3 °C; in test [3], 0.7 °C; in test [4] it was 2.5 °C; in test [5] it was 0.8 °C; in test [6], 0.6 °C. Further, the ΔTm is 0.1 °C in [7]; 4.9 °C in test [8]; 1.7 °C in [9]; 0.4 °C in test [10]; 0.6 °C in [11]; 4 °C in [12]. Further, the ΔTm was 2.2 °C in test [13]; 4.1 °C in [14]; 1.5 °C in test [15]; 5.7 °C in test [16]; 1.4 °C in [17]; -0.3 °C in test [18]. In addition, the ΔTm in test [19] worked out at 4.7 °C.
With `COc1cc2c(cc1OC)-c1n[nH]c(Nc3cccc(F)c3)c1C2`, the ΔTm was 0.3 °C in [1]; -0.1 °C in test [2]; 0.5 °C in test [3]; 0 °C in [20]; -0.1 °C in [4]; 0.7 °C in [5]. Also, the ΔTm in test [6] came to 0.1 °C; in [7], 0.6 °C; in [8], 0.6 °C; in test [9] it was 0.5 °C; in test [10] it was 0.5 °C; in test [11], 0.2 °C. For the same molecule, the ΔTm was -0.2 °C in test [12]; 2.1 °C in [13]; 2.5 °C in [14]; 2.4 °C in test [15]; -0.2 °C in test [16]; 0.7 °C in [17]. Moreover, the ΔTm in test [18] came out at 0.7 °C.
With `Cc1ccc(NC2=CC(=O)c3sc(C)nc3C2=O)cc1`, the ΔTm in test [1] is -1.6 °C; in [2] it was -2 °C; in [3], 3.7 °C; in test [20] it was 0.2 °C; in [4], -1.8 °C; in test [5] it was -2 °C. Further, the ΔTm was -0.6 °C in [6]; -1.5 °C in test [7]; -1.2 °C in test [8]; -2.1 °C in test [9]; -1.3 °C in test [10]; -0.6 °C in test [11]. The ΔTm is 0.6 °C in test [12]; -0.6 °C in [13]; -0.7 °C in test [14]; -1 °C in test [15]; -0.5 °C in [16]; -1.3 °C in test [17]. Besides, in test [18], the shift in melting temperature (ΔTm) is -1.4 °C.
Regarding `CC[C@H](CO)Nc1nc(NCc2ccccc2)c2ncn(C(C)C)c2n1` [SELICICLIB], the ΔTm in test [1] was determined as 0 °C; in test [2] it was 0.3 °C; in test [3], 0.2 °C; in test [4], 0 °C; in [6] it was 1 °C; in test [7], 0.4 °C. The ΔTm was 0.7 °C in test [8]; 0.5 °C in [9]; -1 °C in test [10]; 0.3 °C in [11]; 0 °C in [12]; 0.2 °C in [13]. The ΔTm is 0.3 °C in [15]; 0.3 °C in test [16]; 0.3 °C in test [17]; 0.4 °C in [18]; 0.6 °C in test [19].
Regarding `COc1ccc2c(c1)/C(=C/c1cnc[nH]1)C(=O)N2` [SU-9516], the ΔTm in test [1] stood at 0.5 °C; in test [2], 1 °C; in [3], 1.5 °C; in test [4], 1.6 °C; in test [5] it was 1.7 °C; in test [6], 0.8 °C. Also, the ΔTm is 2.6 °C in test [7]; 1.2 °C in test [8]; 2.3 °C in [9]; 1.3 °C in [10]; 1.7 °C in [11]; 1.3 °C in test [12]. Further, the ΔTm in [13] was determined as 3.3 °C; in test [14], 3.5 °C; in [15], 3.4 °C; in test [16], 2 °C; in test [17], 8.1 °C; in [18], 5.7 °C. The ΔTm in test [19] came out at 0.3 °C.

These data come from ChEMBL document CHEMBL1145498, “A systematic interaction map of validated kinase inhibitors with Ser/Thr kinases” (Proc Natl Acad Sci U S A, 2007).
